Laboratory results from patent publication US12102089B2, “Method for inactivating mold spores” (DSM IP ASSETS B.V., priority 2017, dated 2024).

Tested on: Talaromyces emersonii (CBS 236.58)
Assay: Heat treatment of Talaromyces emersonii spores in ice tea with natamycin, visual growth
Assay type: cell-based
Design: key to growth or no growth: growth (+); no growth (−)
Description: Commercially available ice tea (Lipton, peach flavor, non-carbonated, 1.5 L) was adjusted to high water hardness by adding 1 ml of a solution of 39 g CaCl2 and 27 g MgCl2 added to 934 g water. ⅓ of this ice tea preparation (the pH of which was 3.15) was left as-such, ⅓ of the preparation was enriched with 5 ppm natamycin and ⅓ of the preparation was enriched with 10 ppm natamycin. Samples of 5 ml were made from each preparation in 15 ml sterile plastic tubes. Of each preparation 8 samples were pre-heated to the desired pasteurization temperature using a water bath. Temperatures used were RT, 60, 65, 70, 75, 80, 85 and 90° C. When the desired temperature was reached, 100 μl of a 2500 spores/ml spore suspension of Aspergillus niger ATCC 9029AA was added to each tube. Subsequently, the samples were kept for 30 seconds at the temperature in question in the water bath. Next, the samples were cooled on ice to a temperature of 25° C. Samples were incubated at 25° C. and visually examined for growth (formation of mold flakes or turbidity) for two months. Additionally, samples were enumerated according to ISO protocol 21527-1.2008 on day 0 (before heat treatment) and day 1 (after heat treatment) to count immediate loss of viability. […] For the results, see Table 1. […] Example 1 was repeated however with Talaromyces emersonii (CBS 236.58, 1000 spores/ml) instead of Aspergillus niger.

SMILES: C[C@@H]1C/C=C/C=C/C=C/C=C/[C@H](O[C@@H]2O[C@H](C)[C@@H](O)[C@H](N)[C@@H]2O)C[C@@H]2O[C@](O)(C[C@@H](O)C[C@H]3O[C@@H]3/C=C/C(=O)O1)C[C@H](O)[C@H]2C(=O)O [natamycin]
- growth or no growth (60°C, 5 ppm, day 1): −
- growth or no growth (60°C, 5 ppm, day 2): −
- growth or no growth (60°C, 5 ppm, day 3): −
- growth or no growth (60°C, 5 ppm, day 4): −
- growth or no growth (60°C, 5 ppm, day 5): −
- growth or no growth (60°C, 5 ppm, day 6): −
- growth or no growth (60°C, 5 ppm, day 7): −
- growth or no growth (60°C, 5 ppm, day 8): −
- growth or no growth (60°C, 5 ppm, day 9): −
- growth or no growth (60°C, 5 ppm, day 10): −
- growth or no growth (60°C, 5 ppm, day 11): −
- growth or no growth (60°C, 5 ppm, day 12): −
- growth or no growth (60°C, 5 ppm, day 13): −
- growth or no growth (60°C, 5 ppm, day 14): −
- growth or no growth (60°C, 10 ppm, day 1): −
- growth or no growth (60°C, 10 ppm, day 2): −
- growth or no growth (60°C, 10 ppm, day 3): −
- growth or no growth (60°C, 10 ppm, day 4): −
- growth or no growth (60°C, 10 ppm, day 5): −
- growth or no growth (60°C, 10 ppm, day 6): −
- growth or no growth (60°C, 10 ppm, day 7): −
- growth or no growth (60°C, 10 ppm, day 8): −
- growth or no growth (60°C, 10 ppm, day 9): −
- growth or no growth (60°C, 10 ppm, day 10): −
- growth or no growth (60°C, 10 ppm, day 11): −
- growth or no growth (60°C, 10 ppm, day 12): −
- growth or no growth (60°C, 10 ppm, day 13): −
- growth or no growth (60°C, 10 ppm, day 14): −
- growth or no growth (65°C, 5 ppm, day 1): −
- growth or no growth (65°C, 5 ppm, day 2): −
- growth or no growth (65°C, 5 ppm, day 3): −
- growth or no growth (65°C, 5 ppm, day 4): +
- growth or no growth (65°C, 5 ppm, day 5): +
- growth or no growth (65°C, 5 ppm, day 6): +
- growth or no growth (65°C, 5 ppm, day 7): +
- growth or no growth (65°C, 5 ppm, day 8): +
- growth or no growth (65°C, 5 ppm, day 9): +
- growth or no growth (65°C, 5 ppm, day 10): +
- growth or no growth (65°C, 5 ppm, day 11): +
- growth or no growth (65°C, 5 ppm, day 12): +
- growth or no growth (65°C, 5 ppm, day 13): +
- growth or no growth (65°C, 5 ppm, day 14): +
- growth or no growth (65°C, 10 ppm, day 1): −
- growth or no growth (65°C, 10 ppm, day 2): −
- growth or no growth (65°C, 10 ppm, day 3): −
- growth or no growth (65°C, 10 ppm, day 4): −
- growth or no growth (65°C, 10 ppm, day 5): −
- growth or no growth (65°C, 10 ppm, day 6): −
- growth or no growth (65°C, 10 ppm, day 7): −
- growth or no growth (65°C, 10 ppm, day 8): −
- growth or no growth (65°C, 10 ppm, day 9): −
- growth or no growth (65°C, 10 ppm, day 10): −
- growth or no growth (65°C, 10 ppm, day 11): −
- growth or no growth (65°C, 10 ppm, day 12): −
- growth or no growth (65°C, 10 ppm, day 13): −
- growth or no growth (65°C, 10 ppm, day 14): −
- growth or no growth (70°C, 5 ppm, day 1): −
- growth or no growth (70°C, 5 ppm, day 2): −
- growth or no growth (70°C, 5 ppm, day 3): −
- growth or no growth (70°C, 5 ppm, day 4): −
- growth or no growth (70°C, 5 ppm, day 5): −
- growth or no growth (70°C, 5 ppm, day 6): −
- growth or no growth (70°C, 5 ppm, day 7): −
- growth or no growth (70°C, 5 ppm, day 8): −
- growth or no growth (70°C, 5 ppm, day 9): −
- growth or no growth (70°C, 5 ppm, day 10): −
- growth or no growth (70°C, 5 ppm, day 11): −
- growth or no growth (70°C, 5 ppm, day 12): −
- growth or no growth (70°C, 5 ppm, day 13): −
- growth or no growth (70°C, 5 ppm, day 14): −
- growth or no growth (70°C, 10 ppm, day 1): −
- growth or no growth (70°C, 10 ppm, day 2): −
- growth or no growth (70°C, 10 ppm, day 3): −
- growth or no growth (70°C, 10 ppm, day 4): −
- growth or no growth (70°C, 10 ppm, day 5): −
- growth or no growth (70°C, 10 ppm, day 6): −
- growth or no growth (70°C, 10 ppm, day 7): −
- growth or no growth (70°C, 10 ppm, day 8): −
- growth or no growth (70°C, 10 ppm, day 9): −
- growth or no growth (70°C, 10 ppm, day 10): −
- growth or no growth (70°C, 10 ppm, day 11): −
- growth or no growth (70°C, 10 ppm, day 12): −
- growth or no growth (70°C, 10 ppm, day 13): −
- growth or no growth (70°C, 10 ppm, day 14): −
- germination (75° C., 10 ppm natamycin): no germination occurred
- growth or no growth (75°C, 5 ppm, day 9): +
- growth or no growth (75°C, 5 ppm, day 10): +
- germination (85° C., both concentrations (5 and 10 ppm)): no germination occurred
- germination (RT, 5 or 10 ppm natamycin): delayed germination
- growth or no growth (RT, 10 ppm, day 1): −
- growth or no growth (RT, 10 ppm, day 2): −
- growth or no growth (RT, 10 ppm, day 3): −
- growth or no growth (RT, 10 ppm, day 4): −
- growth or no growth (RT, 10 ppm, day 5): −
- growth or no growth (RT, 10 ppm, day 6): −
- growth or no growth (RT, 10 ppm, day 7): +
- growth or no growth (RT, 10 ppm, day 8): +
- growth or no growth (RT, 10 ppm, day 9): +
- growth or no growth (RT, 10 ppm, day 10): +
- growth or no growth (RT, 10 ppm, day 11): +
- growth or no growth (RT, 10 ppm, day 12): +
- growth or no growth (RT, 10 ppm, day 13): +
- growth or no growth (RT, 10 ppm, day 14): +
